Test results: US7687535B2, “Substituted 3-sulfur indoles” (AstraZeneca AB, priority 2003, dated 2010)

Tests used:
[1] = molecular target: T1, rhCRTh2 (Homo sapiens, UniProt Q9Y5Y4); assay: Ligand Binding Assay ([3H]PGD2 SPA, HEK cell membranes); settings: [3H]PGD2 binding to membranes of HEK cells expressing rhCRTh2/Gα16, SPA beads, 2 hours at room temperature
T1 construct: expressed in transfected cells; host or cells: HEK cells (membrane preparation)
T1 sequence (Q9Y5Y4 1-395): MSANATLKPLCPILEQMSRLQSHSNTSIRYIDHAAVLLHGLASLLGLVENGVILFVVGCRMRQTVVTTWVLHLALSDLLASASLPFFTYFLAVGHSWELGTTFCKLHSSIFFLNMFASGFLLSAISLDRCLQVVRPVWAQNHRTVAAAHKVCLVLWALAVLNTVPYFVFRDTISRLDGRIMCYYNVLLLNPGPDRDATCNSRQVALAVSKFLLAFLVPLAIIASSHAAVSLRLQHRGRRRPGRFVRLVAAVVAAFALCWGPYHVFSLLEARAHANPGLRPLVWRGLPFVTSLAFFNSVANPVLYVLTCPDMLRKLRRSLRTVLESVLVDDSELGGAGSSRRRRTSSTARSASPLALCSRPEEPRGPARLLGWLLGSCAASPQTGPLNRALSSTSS
Procedure: [^3H]PGD2 was purchased from Perkin Elmer Life Sciences with a specific activity of 100-210 Ci/mmol. All other chemicals were of analytical grade.
HEK cells expressing rhCRTh2/Gα16 were routinely maintained in DMEM containing 10% Foetal Bovine Serum (HyClone), 1 mg/ml geneticin, 2 mM L-glutamine and 1% non-essential amino acids. For the preparation of membranes, the adherent transfected HEK cells were grown to confluence in two layer tissue culture factories (Fisher, catalogue number TKT-170-070E). Maximal levels of receptor expression were induced by addition of […] sodium butyrate for the last 18 hours of culture. The adherent cells were washed once with phosphate buffered saline (PBS, 50 ml per cell factory) and detached by the addition of 50 ml per cell factory of ice-cold membrane homogenisation buffer [20 mM HEPES (pH 7.4), 0.1 mM dithiothreitol, 1 mM EDTA, 0.1 mM phenyl methyl sulphonyl fluoride and 100 μg/ml bacitracin]. […] The final pellet was re-suspended in 4 ml of membrane homogenisation buffer per cell factory used and the protein content determined. […]
All assays were performed in Corning clear bottomed, white 96-well NBS plates (Fisher). […] (The optimum coating concentrations were determined for each batch of membranes) The beads were pelleted by centrifugation (800×g for 7 minutes at 4° C.), washed once with assay buffer (50 mM HEPES pH 7.4 containing 5 mM magnesium chloride) and finally re-suspended in assay buffer at a bead concentration of 10 mg/ml.
Each assay contained 20 μl of 6.25 nM [^3H]PGD2, 20 μl membrane saturated SPA beads both in assay buffer and 10 μl of compound solution or 13,14-dihydro-15-keto prostaglandin D2 (DK-PGD2, for determination of non-specific binding, Cayman chemical company). […] The assay plate was incubated at room temperature for 2 hours and counted on a Wallac Microbeta liquid scintillation counter (1 minute per well).

Cc1c(Sc2ccccc2Cl)c2cc(NS(C)(=O)=O)ccc2n1CC(=O)O [Example 5, 3-[(2-Chlorophenyl)thio]-2-methyl-5-[(methylsulfonyl)amino]-1H-indole-1-acetic acid]
melting point: 212 °C

Cc1c(Sc2cccc(Cl)c2)c2cc(NS(C)(=O)=O)ccc2n1CC(=O)O [Example 6, 3-[(3-Chlorophenyl)thio]-2-methyl-5-[(methylsulfonyl)amino]-1H-indole-1-acetic acid]
melting point: 224 °C

Cc1c(Sc2ccc(Cl)cc2)c2cc(NS(C)(=O)=O)ccc2n1CC(=O)O [Example 7, 3-[(4-Chlorophenyl)thio]-2-methyl-5-[(methylsulfonyl)amino]-1H-indole-1-acetic acid]
melting point: 214 °C

COc1cccc(Sc2c(C)n(CC(=O)O)c3ccc(NS(C)(=O)=O)cc23)c1 [Example 8, 3-[(3-Methoxyphenyl)thio]-2-methyl-5-[(methylsulfonyl)amino]-1H-indole-1-acetic acid]
melting point: 292 °C

COc1ccc(Sc2c(C)n(CC(=O)O)c3ccc(NS(C)(=O)=O)cc23)cc1 [Example 9, 3-[(4-Methoxyphenyl)thio]-2-methyl-5-[(methylsulfonyl)amino]-1H-indole-1-acetic acid]
melting point: 215 °C

Cc1c(Sc2ccccc2C(F)(F)F)c2cc(NS(C)(=O)=O)ccc2n1CC(=O)O [Example 10, 3-[(2-Trifluoromethylphenyl)thio]-2-methyl-5-[(methylsulfonyl)amino]-1H-indole-1-acetic acid]
melting point: 207 °C

Cc1c(Sc2cccc3cccnc23)c2cc(NS(C)(=O)=O)ccc2n1CC(=O)O [Example 11, 3-[(8-Quinolinyl)thio]-2-methyl-5-[(methylsulfonyl)amino]-1H-indole-1-acetic acid]
melting point: 257 °C

Cc1c(Sc2ccccc2C(C)C)c2cc(NS(C)(=O)=O)ccc2n1CC(=O)O [Example 12, 3-[(2-(Methylethyl)phenyl)thio]-2-methyl-5-[(methylsulfonyl)amino]-1H-indole-1-acetic acid]
melting point: 160 °C

CCN(C(C)=O)c1cccc2c1c(Sc1ccc(Cl)cc1)c(C)n2CC(=O)O [Example 14, 4-(Acetylethylamino)-3-[(4-chlorophenyl)thio]-2-methyl-1H-indole-1-acetic acid]
IC50 [1]: 224 nM

Cc1c(Sc2ccc(Cl)cc2)c2c(NC(=O)C3CC3)cccc2n1CC(=O)O [Example 15]
melting point: 183 to 185 °C

Cc1c(Sc2ccc(Cl)cc2)c2c(NC(=O)c3ccccc3)cccc2n1CC(=O)O [Example 16, 4-(Benzoylamino)-3-[(4-chlorophenyl)thio]-2-methyl-1H-indole-1-acetic acid]
melting point: 213 to 215 °C

Cc1c(Sc2ccc(S(C)(=O)=O)cc2)c2c(-c3cccs3)cccc2n1CC(=O)O [Example 26, 2-Methyl-3-[[4-(methylsulfonyl)phenyl]thio]-4-(2-thiophenyl)-1H-indole-1-acetic acid]
IC50 [1]: 4.47 nM

Cc1c(Sc2cccc(S(C)(=O)=O)c2)c2cc(NS(C)(=O)=O)ccc2n1CC(=O)O [Example 30, 2-Methyl-5-[(methylsulfonyl)amino]-3-[[3-(methylsulfonyl)phenyl]thio]-1H-indole-1-acetic acid]
melting point: 233 to 236 °C

Cc1c(Sc2ccccc2S(C)(=O)=O)c2cc(NS(C)(=O)=O)ccc2n1CC(=O)O [Example 31, 2-Methyl-5-[(methylsulfonyl)amino]-3-[[2-(methylsulfonyl)phenyl]thio]-1H-indole-1-acetic acid]
melting point: 227 to 230 °C

Cc1c(Sc2ccc(S(C)(=O)=O)cc2)c2cc(-c3cncnc3)ccc2n1CC(=O)O [Example 32]
melting point: > 290 °C

Cc1noc(C)c1-c1ccc2c(c1)c(Sc1ccc(S(C)(=O)=O)cc1)c(C)n2CC(=O)O [Example 34, 5-(3,5-Dimethyl-4-isoxazolyl)-2-methyl-3-[[4-(methylsulfonyl)phenyl]thio]-1H-indole-1-acetic acid]
IC50 [1]: 0.398 nM
